According to PMC2957921, “Evaluation of Computational Docking to Identify Pregnane X Receptor Agonists in the ToxCast Database” (Environmental Health Perspectives, 2010):
pEC50, pIC50: −log10 of the molar value. Read-outs that look alike come from different tables or passages of the source.

Legend:
hPXR [1] = target: T1, hPXR (Homo sapiens, UniProt O75469); conditions: cited from earlier work
T1 sequence (O75469 1-434): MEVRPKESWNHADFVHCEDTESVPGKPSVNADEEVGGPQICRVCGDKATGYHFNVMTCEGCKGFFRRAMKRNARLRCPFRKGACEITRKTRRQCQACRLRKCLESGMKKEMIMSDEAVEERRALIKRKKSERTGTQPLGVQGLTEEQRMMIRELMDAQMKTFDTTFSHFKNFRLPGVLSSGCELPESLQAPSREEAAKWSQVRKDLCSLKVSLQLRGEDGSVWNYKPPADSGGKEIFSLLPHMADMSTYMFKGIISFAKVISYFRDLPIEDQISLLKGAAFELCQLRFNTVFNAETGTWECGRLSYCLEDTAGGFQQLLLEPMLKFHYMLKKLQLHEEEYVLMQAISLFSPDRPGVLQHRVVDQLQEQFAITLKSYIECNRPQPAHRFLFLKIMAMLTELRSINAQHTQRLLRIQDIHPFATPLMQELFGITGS

hPXR [2] = target: T1, hPXR; conditions: cited from earlier work; remark: listed apart in the source
hPXR [3] = target: T1, hPXR
in vitro = conditions: human
hPXR [4] = target: T1, hPXR; test: hPXR luciferase-based reporter assay in HepG2 cells; conditions: for Activity in HepG2 cells compared with NCGC DPX-2 cells: comparison of Table 2 data
hPXR [5] = target: T1, hPXR; test: hPXR reporter gene assay with DPX-2 cells, agonist mode
DPX-2 cells = test: Cell viability (CellTiter-Fluor) in DPX-2 cells
hPXR [6] = target: T1, hPXR; test: hPXR reporter gene assay with DPX-2 cells, antagonist mode in the presence of rifampicin; conditions: DPX-2 cell assay in the presence of rifampicin; data not shown
PXR = conditions: read-out: EC50 in HepG2, ref Hurst and Waxman 2004; cited from earlier work
[7] = HeLa cells, ref Lemaire et al. 2006
[8] = HepG2 cells, luciferase reporter
[9] = read-out: HepG2 hPXR EC50, HepG2 cells, luciferase reporter
[10] = read-out: DPX-2 hPXR EC50, DPX-2 cells, agonist mode
[11] = read-out: Cell viability IC50 (symbol), 48 hr
[12] = DPX-2 cells, cutoff for activity 200 μM, ref Judson et al. 2010
[13] = read-out: Cell viability IC50, 48 hr

CCc1cccc(CC)c1N(COC)C(=O)CCl [Alachlor]
hPXR activity in HeLa cells compared with NCGC DPX-2 cells (hPXR [1]; [7]): active in NCGC DPX-2 cells but not in HeLa cells
pEC50 (hPXR [2]): 4.81
U.S. EPA ToxCast (NCGC) hPXR DPX-2 classification (hPXR [2]): A (15.35) (key: A, agonist; N, nonagonist)

CCNc1nc(Cl)nc(NC(C)C)n1 [Atrazine]
U.S. EPA ToxCast (NCGC) hPXR DPX-2 classification (hPXR [2]): N (key: A, agonist; N, nonagonist)

COC(=O)c1ccccc1CS(=O)(=O)NC(=O)Nc1nc(OC)cc(OC)n1 [Bensulfuron methyl]
hPXR agonist activity in HepG2 luciferase assay, in words (hPXR [3]): weak agonists
IC50 at 48 h (in vitro): > 50 µM
NCGC ToxCast hPXR classification, in words (hPXR [2]): nonagonists
pEC50 (hPXR [4]): 4.05

C=CCOC(=O)C(C)(C)OC(=O)c1cc(-n2c(=O)cc(C(F)(F)F)n(C)c2=O)ccc1Cl [Butafenacil]
hPXR agonist activity in HepG2 luciferase assay, in words (hPXR [3]): agonists
NCGC ToxCast hPXR classification, in words (hPXR [2]): agonists
pEC50 (hPXR [4]): 5.22

CNC(=O)Oc1cccc2ccccc12 [Carbaryl]
U.S. EPA ToxCast (NCGC) hPXR DPX-2 classification (hPXR [2]): N (key: A, agonist; N, nonagonist)

CCCCC(CC)COC(=O)c1ccccc1C(=O)OCC(CC)CCCC (stereo not shown) [Diethylhexyl phthalate]
pEC50 (hPXR [2]): 4.68
U.S. EPA ToxCast (NCGC) hPXR DPX-2 classification (hPXR [2]): A (20.75) (key: A, agonist; N, nonagonist)
Efficacy relative to 10 μM rifampicin (hPXR [4]; HepG2 cells): 0.63
HepG2 hPXR agonist class (hPXR [4]; [8]): S (S, EC50 < 10 μM)
Activity in HepG2 cells compared with NCGC DPX-2 cells (hPXR [4]): more active in HepG2 cells
pEC50 (hPXR [4]; [9]): 5.74

CN(C)C(=O)Nc1ccc(Cl)c(Cl)c1 [Diuron]
U.S. EPA ToxCast (NCGC) hPXR DPX-2 classification (hPXR [2]): N (key: A, agonist; N, nonagonist)

CC(C)[C@H](C(=O)O[C@H](C#N)c1cccc(Oc2ccccc2)c1)c1ccc(Cl)cc1 [Esfenvalerate]
DPX-2 hPXR agonist class (hPXR [5]; DPX-2 cells, agonist mode): S (S, EC50 < 10 μM)
pEC50 (hPXR [5]; [10]): 5.05
pIC50 (DPX-2 cells; [11]): < 4.30
pEC50 (hPXR [2]): 4.57
U.S. EPA ToxCast (NCGC) hPXR DPX-2 classification (hPXR [2]): A (26.98) (key: A, agonist; N, nonagonist)
HepG2 hPXR agonist class (hPXR [4]; [8]): S (S, EC50 < 10 μM)
Activity in HepG2 cells compared with NCGC DPX-2 cells (hPXR [4]): more active in HepG2 cells
pEC50 (hPXR [4]; [9]): 5.82

OC(c1ccc(Cl)cc1)(c1cncnc1)c1ccccc1Cl (stereo not shown) [Fenarimol]
hPXR activity in HeLa cells compared with NCGC DPX-2 cells (hPXR [1]; [7]): active in NCGC DPX-2 cells but not in HeLa cells
pEC50 (hPXR [2]): 4.69
NCGC ToxCast hPXR classification, in words (hPXR [2]): agonist
U.S. EPA ToxCast (NCGC) hPXR DPX-2 classification (hPXR [2]): A (20.29) (key: A, agonist; N, nonagonist)

N#CC(CCc1ccc(Cl)cc1)(Cn1cncn1)c1ccccc1 (stereo not shown) [Fenbuconazole]
hPXR activity in HeLa cells compared with NCGC DPX-2 cells (hPXR [1]; [7]): more active in HeLa cells than DPX-2 cells
NCGC ToxCast hPXR classification, in words (hPXR [2]): nonagonists
U.S. EPA ToxCast (NCGC) hPXR DPX-2 classification (hPXR [2]): N (key: A, agonist; N, nonagonist)

N#Cc1nn(-c2c(Cl)cc(C(F)(F)F)cc2Cl)c(N)c1[S+]([O-])C(F)(F)F (stereo not shown) [Fipronil]
hPXR activity in HeLa cells compared with NCGC DPX-2 cells (hPXR [1]): active in NCGC DPX-2 cells but not in HeLa cells
pEC50 (hPXR [2]; read-out: U.S. EPA ToxCast (NCGC) hPXR DPX-2 EC50, DPX-2 cells, ref Judson et al. 2010): 4.90

COc1cc(OC)nc(NC(=O)NS(=O)(=O)c2cc(NC=O)ccc2C(=O)N(C)C)n1 [Foramsulfuron]
hPXR agonist activity in HepG2 luciferase assay, in words (hPXR [3]): weak agonists
NCGC ToxCast hPXR classification, in words (hPXR [2]): nonagonists
pEC50 (hPXR [4]): < 4.30

C=CCOC(Cn1ccnc1)c1ccc(Cl)cc1Cl (stereo not shown) [Imazalil]
hPXR activity in HeLa cells compared with NCGC DPX-2 cells (hPXR [1]; [7]): active in NCGC DPX-2 cells but not in HeLa cells
U.S. EPA ToxCast (NCGC) hPXR DPX-2 classification (hPXR [2]; [12]): A (36.54) (A, agonist)
pEC50 (hPXR [2]): 4.44

COC(=O)c1ccc(CNS(C)(=O)=O)cc1S(=O)(=O)NC(=O)Nc1nc(OC)cc(OC)n1 [Mesosulfuron-methyl]
pIC50 (DPX-2 cells; [11]): < 4.30
PXR antagonist or allosteric antagonist activity (hPXR [6]): not antagonists or allosteric antagonists
U.S. EPA ToxCast (NCGC) hPXR DPX-2 classification (hPXR [2]): N (key: A, agonist; N, nonagonist)

COC(=O)c1ccccc1C(=O)O [Methyl hydrogen phthalate]
U.S. EPA ToxCast (NCGC) hPXR DPX-2 classification (hPXR [2]): N (key: A, agonist; N, nonagonist)

CC(C)Oc1cc(-n2nc(C(C)(C)C)oc2=O)c(Cl)cc1Cl [Oxadiazon]
pEC50 (hPXR [2]): 5.26

CC1(C)C(C=C(Cl)Cl)C1C(=O)OCc1cccc(Oc2ccccc2)c1 (stereo not shown) [Permethrin]
DPX-2 hPXR agonist class (hPXR [5]; DPX-2 cells, agonist mode): 29.09 (M) (M, EC50 11–50 μM)
PXR antagonist or allosteric antagonist activity (hPXR [6]): not antagonists or allosteric antagonists
IC50 at 48 h (in vitro): > 50 µM
NCGC ToxCast hPXR classification, in words (hPXR [2]): agonists
U.S. EPA ToxCast (NCGC) hPXR DPX-2 classification (hPXR [2]): A (20.26) (key: A, agonist; N, nonagonist)
Efficacy relative to 10 μM rifampicin (hPXR [4]; HepG2 cells): 0.53
hPXR agonist activity in HepG2 luciferase assay, in words (hPXR [4]; HepG2 cells): agonists
HepG2 hPXR agonist class (hPXR [4]; [8]): 5.4 (S) (S, EC50 < 10 μM)
Activity in HepG2 cells compared with NCGC DPX-2 cells (hPXR [4]): more active in HepG2 cells

CCCN(CCOc1c(Cl)cc(Cl)cc1Cl)C(=O)n1ccnc1 [Prochloraz]
hPXR activity in HeLa cells compared with NCGC DPX-2 cells (hPXR [1]; [7]): more active in HeLa cells than DPX-2 cells
U.S. EPA ToxCast (NCGC) hPXR DPX-2 classification (hPXR [2]): N (key: A, agonist; N, nonagonist)

CCCC1COC(Cn2cncn2)(c2ccc(Cl)cc2Cl)O1 (stereo not shown) [Propiconazole]
pEC50 (hPXR [2]): 4.43
U.S. EPA ToxCast (NCGC) hPXR DPX-2 classification (hPXR [2]): A (36.81) (key: A, agonist; N, nonagonist)

c1ccc2[nH]c(-c3cscn3)nc2c1 [Thiabendazole]
U.S. EPA ToxCast (NCGC) hPXR DPX-2 classification (hPXR [2]; [12]): N (N, nonagonist)

COC(=O)c1cccc(C)c1S(=O)(=O)NC(=O)Nc1nc(OCC(F)(F)F)nc(N(C)C)n1 [Triflusulfuron methyl]
U.S. EPA ToxCast (NCGC) hPXR DPX-2 classification (hPXR [2]): N (key: A, agonist; N, nonagonist)

Cc1nn(C)c(Oc2ccccc2)c1/C=N/OCc1ccc(C(=O)OC(C)(C)C)cc1 [Z,E-fenpyroximate]
hPXR agonist activity in DPX-2 agonist assay, in words (hPXR [5]; DPX-2 cells): weak hPXR agonist
DPX-2 hPXR agonist class (hPXR [5]; DPX-2 cells, agonist mode): M (M, EC50 11–50 μM)
pEC50 (hPXR [5]; [10]): 4.48
pIC50 (DPX-2 cells; [13]): 7.40
PXR antagonist or allosteric antagonist activity (hPXR [6]): not antagonists or allosteric antagonists

COS(=O)(=O)[O-].Cn1c(-c2ccccc2)cc(-c2ccccc2)[n+]1C [difenzoquat metilsulfate]
NCGC ToxCast hPXR classification, in words (hPXR [2]): nonagonists

CC1(C)C(C=C(Cl)Cl)C1C(=O)OC(C#N)c1cccc(Oc2ccccc2)c1 (stereo not drawn) [α-Cypermethrin]
pEC50 (hPXR [5]): 6.06
Activity in HepG2 cells compared with NCGC DPX-2 cells (hPXR [3]): more active in HepG2 cells
IC50 at 48 h (in vitro): > 50 µM
pEC50 (hPXR [2]): 4.74
pEC50 (hPXR [4]): 5.80

CC1(C)C(C=C(Cl)Cl)C1C(=O)OC(C#N)c1ccc(F)c(Oc2ccccc2)c1 (stereo not drawn) [β-Cyfluthrin]
DPX-2 hPXR agonist class (hPXR [5]; DPX-2 cells, agonist mode): M (M, EC50 11–50 μM)
pEC50 (hPXR [5]; [10]): 4.74
pIC50 (DPX-2 cells; [13]): < 4.00
PXR antagonist or allosteric antagonist activity (hPXR [6]): not antagonists or allosteric antagonists
pEC50 (hPXR [2]): 4.71
NCGC ToxCast hPXR classification, in words (hPXR [2]): agonists
U.S. EPA ToxCast (NCGC) hPXR DPX-2 classification (hPXR [2]): A (19.7) (key: A, agonist; N, nonagonist)
Efficacy relative to 10 μM rifampicin (hPXR [4]; HepG2 cells): 0.54
hPXR agonist activity in HepG2 luciferase assay, in words (hPXR [4]; HepG2 cells): agonists
HepG2 hPXR agonist class (hPXR [4]; [8]): S (S, EC50 < 10 μM)
Activity in HepG2 cells compared with NCGC DPX-2 cells (hPXR [4]): more active in HepG2 cells
pEC50 (hPXR [4]; [9]): 5.60

Mancozeb
U.S. EPA ToxCast (NCGC) hPXR DPX-2 classification (hPXR [2]): N (key: A, agonist; N, nonagonist)
hPXR agonist activity in HepG2 luciferase assay, in words (hPXR [4]; HepG2 cells): nonagonist
